According to patent publication US11174251B2, “Compositions and methods for inhibition of the JAK pathway” (Rigel Pharmaceuticals, Inc., priority 2010, dated 2021):
Where a name gives a salt, the structure may show the parent alone.

Target: T1, JAK3 (Homo sapiens, UniProt P52333)
T1 construct: The Ramos B-cell line was acquired from ATCC (ATCC Catalog No. CRL-1596); host or cells: Ramos B-cell line (human)
T1 sequence (P52333 1-1124): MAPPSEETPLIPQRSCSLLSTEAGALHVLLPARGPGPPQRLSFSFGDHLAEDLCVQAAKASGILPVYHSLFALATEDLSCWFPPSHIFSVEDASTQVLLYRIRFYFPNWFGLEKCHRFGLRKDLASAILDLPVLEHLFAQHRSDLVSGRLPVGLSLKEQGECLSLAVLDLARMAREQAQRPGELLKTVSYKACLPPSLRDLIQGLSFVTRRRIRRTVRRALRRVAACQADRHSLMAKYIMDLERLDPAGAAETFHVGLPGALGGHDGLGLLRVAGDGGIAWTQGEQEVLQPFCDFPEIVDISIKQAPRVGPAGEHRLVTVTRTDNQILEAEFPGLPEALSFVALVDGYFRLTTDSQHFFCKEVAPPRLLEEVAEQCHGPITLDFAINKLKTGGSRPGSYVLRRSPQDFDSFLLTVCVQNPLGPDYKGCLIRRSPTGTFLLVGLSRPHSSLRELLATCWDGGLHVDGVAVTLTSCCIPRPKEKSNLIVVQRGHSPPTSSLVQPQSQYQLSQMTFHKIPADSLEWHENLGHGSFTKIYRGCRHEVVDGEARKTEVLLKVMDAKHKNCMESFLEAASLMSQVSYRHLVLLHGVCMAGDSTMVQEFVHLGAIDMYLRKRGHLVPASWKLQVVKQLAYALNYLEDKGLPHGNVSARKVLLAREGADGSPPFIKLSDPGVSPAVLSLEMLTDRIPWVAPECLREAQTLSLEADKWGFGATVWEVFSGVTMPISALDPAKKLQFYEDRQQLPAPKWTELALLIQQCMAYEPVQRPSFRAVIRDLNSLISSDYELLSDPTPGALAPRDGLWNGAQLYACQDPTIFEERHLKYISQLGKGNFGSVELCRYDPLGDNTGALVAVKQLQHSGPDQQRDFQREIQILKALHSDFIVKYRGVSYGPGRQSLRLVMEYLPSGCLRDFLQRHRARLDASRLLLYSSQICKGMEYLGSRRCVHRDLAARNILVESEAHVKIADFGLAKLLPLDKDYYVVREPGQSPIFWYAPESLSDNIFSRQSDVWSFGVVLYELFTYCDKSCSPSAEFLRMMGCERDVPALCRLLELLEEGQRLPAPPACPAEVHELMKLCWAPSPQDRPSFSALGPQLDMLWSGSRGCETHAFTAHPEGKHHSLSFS
Assay: Assay for CD23 expression on Ramos B-cells stimulated by IL-4 (Table IV: ability to inhibit JAK3 activity)
Assay type: cell-based
Details: tested under conditions described in Example 3 (so in the source)
Method in brief: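 Human Ramos B cells in RPMI with 5% serum, pre-incubated 1 h at 37 °C with compound or DMSO, then stimulated with IL-4 (final 50 units/mL) for 20–24 h. Surface CD23 upregulation measured by FACS staining as readout of JAK1/JAK3–Stat-6 signalling.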

| Structure (SMILES) | IC50 [nM] |
| --- | --- |
| COc1cc(Nc2ncc(CO)c(Nc3ccc4oc(=O)[nH]c4c3)n2)cc(C)c1F [Compound I-80, 5-(2-(4-fluoro-3-methoxy-5-methylphenylamino)-5-(hydroxymethyl)pyrimidin-4-ylamino)benzo[d]oxazol-2(3H)-one trifluoroacetate salt] | 500 to 5000 |
| CCNc1cc(Nc2ncc(Cl)c(Nc3ccc4oc(=O)[nH]c4c3)n2)cc(C)c1C [Compound I-87, 5-(5-chloro-2-(3-(ethylamino)-4,5-dimethylphenylamino)pyrimidin-4-ylamino)benzo[d]oxazol-2(3H)-one formate salt] | < 500 |
| Cc1cnc(Nc2cc(C)c(C)c(C)c2)nc1Nc1cc(-c2ccc3c(c2)OCO3)c2oc(=O)[nH]c2c1 [Compound I-88, 5-(2-(3,4,5-trimethylphenylamino)-5-methylpyrimidin-4-ylamino)-7-(benzo[d][1,3]dioxol-6-yl)benzo[d]oxazol-2(3H)-one] | > 10000 |
| Cc1cnc(Nc2cc(C)c(C)c(C)c2)nc1Nc1cc(CN(C)C)c2oc(=O)[nH]c2c1 [Compound I-89, 5-(2-(3,4,5-trimethylphenylamino)-5-methylpyrimidin-4-ylamino)-7-((dimethylamino)methyl)benzo[d]oxazol-2(3H)-one ditrifluoroacetate salt] | 500 to 5000 |
| CCN(CC)Cc1cc(Nc2nc(Nc3cc(C)c(C)c(C)c3)ncc2C)cc2[nH]c(=O)oc12 [Compound I-90, 7-((diethylamino)methyl)-5-(2-(3,4,5-trimethylphenylamino)-5-methylpyrimidin-4-ylamino)benzo[d]oxazol-2(3H)-one ditrifluoroacetate salt] | 500 to 5000 |
| Cc1cnc(Nc2cc(C)c(C)c(C)c2)nc1Nc1cc(CN2CCCC2)c2oc(=O)[nH]c2c1 [Compound I-91, 5-(2-(3,4,5-trimethylphenylamino)-5-methylpyrimidin-4-ylamino)-7-((pyrrolidin-1-yl)methyl)benzo[d]oxazol-2(3H)-one] | 500 to 5000 |
| Cc1cnc(Nc2cc(C)c(C)c(C)c2)nc1Nc1cc(CN2CCN(C)CC2)c2oc(=O)[nH]c2c1 [Compound I-93, 5-(2-(3,4,5-trimethylphenylamino)-5-methylpyrimidin-4-ylamino)-7-((4-methylpiperazin-1-yl)methyl)benzo[d]oxazol-2(3H)-one] | 500 to 5000 |
| Cc1cnc(Nc2cc(C)c(C)c(C)c2)nc1Nc1cc(CN2CCN(C(=O)OC(C)(C)C)CC2)c2oc(=O)[nH]c2c1 [Compound I-94, tert-butyl 4-((5-(2-(3,4,5-trimethylphenylamino)-5-methylpyrimidin-4-ylamino)-2,3-dihydro-2-oxobenzo[d]oxazol-7-yl)methyl)piperazine-1-carboxylate] | 5000 to 10000 |
| Cc1cnc(Nc2cc(C)c(C)c(C)c2)nc1Nc1cc(CN2CCNCC2)c2oc(=O)[nH]c2c1 [Compound I-95, 5-(2-(3,4,5-trimethylphenylamino)-5-methylpyrimidin-4-ylamino)-7-((piperazin-1-yl)methyl)benzo[d]oxazol-2(3H)-one ditrifluoroacetate salt] | 5000 to 10000 |
| Cc1cnc(Nc2cc(C)c(C)c(C)c2)nc1Nc1cc(/C=C/CCl)c2oc(=O)[nH]c2c1 [Compound I-96, 5-(2-(3,4,5-trimethylphenylamino)-5-methylpyrimidin-4-ylamino)-7-((E)-3-chloroprop-1-enyl)benzo[d]oxazol-2(3H)-one] | 500 to 5000 |
| CCN(CC)Cc1cnc(Nc2cc(C)c(C)c(C)c2)nc1Nc1ccc2oc(=O)[nH]c2c1 [Compound I-97, 5-(5-((diethylamino)methyl)-2-(3,4,5-trimethylphenylamino)pyrimidin-4-ylamino)benzo[d]oxazol-2(3H)-one ditrifluoroacetate salt] | 500 to 5000 |
| Cc1cc(Nc2ncc(CN3CCCC3)c(Nc3ccc4oc(=O)[nH]c4c3)n2)cc(C)c1C [Compound I-98, 5-(2-(3,4,5-trimethylphenylamino)-5-((pyrrolidin-1-yl)methyl)pyrimidin-4-ylamino)benzo[d]oxazol-2(3H)-one] | 5000 to 10000 |
| Cc1cc(Nc2ncc(CN3CCCCC3)c(Nc3ccc4oc(=O)[nH]c4c3)n2)cc(C)c1C [Compound I-99, 5-(2-(3,4,5-trimethylphenylamino)-5-((piperidin-1-yl)methyl)pyrimidin-4-ylamino)benzo[d]oxazol-2(3H)-one] | > 10000 |
| Cc1cc(Nc2ncc(CN3CCN(C)CC3)c(Nc3ccc4oc(=O)[nH]c4c3)n2)cc(C)c1C [Compound I-100, 5-(2-(3,4,5-trimethylphenylamino)-5-((4-methylpiperazin-1-yl)methyl)pyrimidin-4-ylamino)benzo[d]oxazol-2(3H)-one] | 500 to 5000 |
| CCOc1ccc(Nc2ncc(C)c(Nc3ccc4oc(=O)[nH]c4c3)n2)c(F)c1OCC [Compound I-101, 5-(2-(3,4-diethoxy-2-fluorophenylamino)-5-methylpyrimidin-4-ylamino)benzo[d]oxazol-2(3H)-one] | < 500 |
| COc1ccc(Nc2ncc(C)c(Nc3ccc4oc(=O)[nH]c4c3)n2)c(F)c1OC [Compound I-102, 5-(2-(2-fluoro-3,4-d6-dimethoxyphenylamino)-5-methylpyrimidin-4-ylamino)benzo[d]oxazol-2(3H)-one] | < 500 |
| CCOc1cc(Nc2ncc(C)c(Nc3ccc4oc(=O)[nH]c4c3)n2)cc(C)c1C [Compound I-103, 5-(2-(3-ethoxy-4,5-dimethylphenylamino)-5-methylpyrimidin-4-ylamino)benzo[d]oxazol-2(3H)-one ditrifluoroacetate salt] | < 500 |
| CCOc1cc(Nc2ncc(Cl)c(Nc3ccc4oc(=O)[nH]c4c3)n2)cc(C)c1C [Compound I-104, 5-(5-chloro-2-(3-ethoxy-4,5-dimethylphenylamino)pyrimidin-4-ylamino)benzo[d]oxazol-2(3H)-one ditrifluoroacetate salt] | < 500 |

Continued, values first:

| IC50 [nM] | Structure (SMILES) |
| --- | --- |
| < 500 | COc1ccc(Nc2ncc(Cl)c(Nc3ccc4oc(=O)[nH]c4c3)n2)c(F)c1 [Compound I-76, 5-(5-chloro-2-(2-fluoro-4-methoxyphenylamino)pyrimidin-4-ylamino)benzo[d]oxazol-2(3H)-one trifluoroacetate salt] |
| < 500 | COCCOc1ccc(Nc2ncc(C)c(Nc3ccc4oc(=O)[nH]c4c3)n2)c(F)c1OCCOC [Compound I-77, 5-(2-(2-fluoro-3,4-bis(2-methoxyethoxy)phenylamino)-5-methylpyrimidin-4-ylamino)benzo[d]oxazol-2(3H)-one trifluoroacetate salt] |
| < 500 | COCCOc1ccc(Nc2ncc(Cl)c(Nc3ccc4oc(=O)[nH]c4c3)n2)c(F)c1OCCOC [Compound I-78, 5-(5-chloro-2-(2-fluoro-3,4-bis(2-methoxyethoxy)phenylamino)pyrimidin-4-ylamino)benzo[d]oxazol-2(3H)-one trifluoroacetate salt] |
| < 500 | Cc1cc(Nc2ncc(CO)c(Nc3ccc4oc(=O)[nH]c4c3)n2)cc(C)c1F [Compound I-79, 5-(2-(4-fluoro-3,5-dimethylphenylamino)-5-(hydroxymethyl)pyrimidin-4-ylamino)benzo[d]oxazol-2(3H)-one trifluoroacetate salt] |
| < 500 | Cc1cc(Nc2ncc(Cl)c(Nc3ccc4oc(=O)[nH]c4c3)n2)cc(N(C)C)c1C [Compound I-83, 5-(5-chloro-2-(3-(dimethylamino)-4,5-dimethylphenylamino)pyrimidin-4-ylamino)benzo[d]oxazol-2(3H)-one trifluoroacetate salt] |
| < 500 | CCN(CC)c1cc(Nc2ncc(C)c(Nc3ccc4oc(=O)[nH]c4c3)n2)cc(C)c1C [Compound I-84, 5-(2-(3-(diethylamino)-4,5-dimethylphenylamino)-5-methylpyrimidin-4-ylamino)benzo[d]oxazol-2(3H)-one formate salt] |
| < 500 | CCNc1cc(Nc2ncc(C)c(Nc3ccc4oc(=O)[nH]c4c3)n2)cc(C)c1C [Compound I-85, 5-(2-(3-(ethylamino)-4,5-dimethylphenylamino)-5-methylpyrimidin-4-ylamino)benzo[d]oxazol-2(3H)-one formate salt] |
| < 500 | CCN(CC)c1cc(Nc2ncc(Cl)c(Nc3ccc4oc(=O)[nH]c4c3)n2)cc(C)c1C [Compound I-86, 5-(5-chloro-2-(3-(diethylamino)-4,5-dimethylphenylamino)pyrimidin-4-ylamino)benzo[d]oxazol-2(3H)-one formate salt] |
